Measurements published in patent US7687246B2, “Process for producing carotenoids” (DSM IP Assets B. V., priority 2002, dated 2010).

How the values were obtained:
Assay type in all cases: cell-based
[1] = tested on: Phaffia rhodozyma ATCC96594; assay: Effect of the squalene synthase inhibitor on the cell growth of Phaffia rhodozyma (Example 1)
Experimental: Phaffia rhodozyma ATCC96594 (redeposited under the accession No. ATCC 74438 on Apr. 8, 1998 pursuant to the Budapest Treaty) was inoculated into YPD medium (DIFCO, Detroit, U.S.A., 10 mL in tube) and cultivated by shaking at 20° C. for 2 days. 0.5 mL of the culture was inoculated into fresh YPD medium (10 mL in tube) containing 30 g/L of glucose and 0, 0.2, 0.5, 1.0, 2.0, 5.0, 10.0, and 20.0, μg/mL, respectively, of [3-(3-allyl-biphenyl-4-yl-oxy)-propyl]-isopropyl-amine, and cultivated by shaking at 20° C. for 5 days. An aliquot of the culture was withdrawn occasionally during the cultivation, and optical density at 660 nm was measured by using UV-1200 photometer (Shimadzu Corp., Kyoto, Japan) for analysis of the cell growth.

[2] = tested on: Phaffia rhodozyma ATCC96594; assay: Effect of the squalene synthase inhibitor on astaxanthin production by Phaffia rhodozyma (Example 2); conditions: for Astaxanthin content (relative values): relative to Day 7 without inhibitor = 100
Experimental: Phaffia rhodozyma ATCC96594 (redeposited under the accession No. ATCC 74438 on Apr. 8, 1998 pursuant to the Budapest Treaty) was inoculated into YPD medium as in Example 1 and cultivated by shaking at 20° C. for 2 days. 2.5 ml of the culture were inoculated into fresh YPD medium (50 mL in flask) containing 22 g/L of glucose and 0, 0.5, 1.0, 2.0, and 5.0, μg/mL, respectively, of [3-(3-allyl-biphenyl-4-yloxy)-propyl]-isopropyl-amine, and cultivated by shaking at 20° C. for 7 days. On Day 2 of the cultivation, 50 g/L of glucose was added to the culture. Addition of the inhibitor in the middle of the cultivation was also tested. An aliquot of the culture was withdrawn at Day 4 and Day 7 of the cultivation, and optical density at 660 nm (by using the same method described in Example 1) and astaxanthin content in the culture were measured. For analysis of the content of astaxanthin, the withdrawn broth was mixed with a solvent mixture (ethyl alcohol, hexane and ethyl acetate) and carotenoids were extracted from the cells of Phaffia rhodozyma by vigorous shaking with glass beads. After extraction, disrupted cells and glass beads were removed by centrifugation and the resultant supernatant was analyzed by HPLC for the astaxanthin content. The HPLC conditions used were as follows: [table] A reference sample of astaxanthin was obtained from Hoffmann La-Roche (Basel, Switzerland).

[3] = tested on: Phaffia rhodozyma ATCC96594; assay: Cell growth of Phaffia rhodozyma during astaxanthin production culture (Example 2)
Experimental: An aliquot of the culture was withdrawn occasionally during the cultivation, and optical density at 660 nm was measured by using UV-1200 photometer (Shimadzu Corp., Kyoto, Japan) for analysis of the cell growth. Phaffia rhodozyma ATCC96594 (redeposited under the accession No. ATCC 74438 on Apr. 8, 1998 pursuant to the Budapest Treaty) was inoculated into YPD medium as in Example 1 and cultivated by shaking at 20° C. for 2 days. 2.5 ml of the culture were inoculated into fresh YPD medium (50 mL in flask) containing 22 g/L of glucose and 0, 0.5, 1.0, 2.0, and 5.0, μg/mL, respectively, of [3-(3-allyl-biphenyl-4-yloxy)-propyl]-isopropyl-amine, and cultivated by shaking at 20° C. for 7 days. On Day 2 of the cultivation, 50 g/L of glucose was added to the culture. Addition of the inhibitor in the middle of the cultivation was also tested. An aliquot of the culture was withdrawn at Day 4 and Day 7 of the cultivation, and optical density at 660 nm (by using the same method described in Example 1) and astaxanthin content in the culture were measured.

[4] = 5.0 μg/mL inhibitor added at Day 2 of the cultivation, Day 4
[5] = 5.0 μg/mL inhibitor added at Day 2 of the cultivation, Day 7
[6] = 5.0 μg/mL inhibitor from start, Day 4
[7] = 5.0 μg/mL inhibitor from start, Day 7

## C=CCc1cc(-c2ccccc2)ccc1OCCCNC(C)C [[3-(3-allyl-biphenyl-4-yloxy)-propyl]-isopropyl-amine]
[1]; 0.2 μg/mL inhibitor, Day 1
  Cell growth (OD at 660 nm): 4.5
[1]; 0.2 μg/mL inhibitor, Day 2
  Cell growth (OD at 660 nm): 16.7
[1]; 0.2 μg/mL inhibitor, Day 3
  Cell growth (OD at 660 nm): 20.1
[1]; 0.2 μg/mL inhibitor, Day 5
  Cell growth (OD at 660 nm): 19.3
[1]; 0.5 μg/mL inhibitor, Day 1
  Cell growth (OD at 660 nm): 4.4
[1]; 0.5 μg/mL inhibitor, Day 2
  Cell growth (OD at 660 nm): 15.6
[1]; 0.5 μg/mL inhibitor, Day 3
  Cell growth (OD at 660 nm): 20.4
[1]; 0.5 μg/mL inhibitor, Day 5
  Cell growth (OD at 660 nm): 19.4
[1]; 1.0 μg/mL inhibitor, Day 1
  Cell growth (OD at 660 nm): 4.0
[1]; 1.0 μg/mL inhibitor, Day 2
  Cell growth (OD at 660 nm): 15.0
[1]; 1.0 μg/mL inhibitor, Day 3
  Cell growth (OD at 660 nm): 20.0
[1]; 1.0 μg/mL inhibitor, Day 5
  Cell growth (OD at 660 nm): 19.5
[1]; 2.0 μg/mL inhibitor, Day 1
  Cell growth (OD at 660 nm): 3.6
[1]; 2.0 μg/mL inhibitor, Day 2
  Cell growth (OD at 660 nm): 15.0
[1]; 2.0 μg/mL inhibitor, Day 3
  Cell growth (OD at 660 nm): 19.5
[1]; 2.0 μg/mL inhibitor, Day 5
  Cell growth (OD at 660 nm): 19.0
[1]; 5.0 μg/mL inhibitor, Day 1
  Cell growth (OD at 660 nm): 2.9
[1]; 5.0 μg/mL inhibitor, Day 2
  Cell growth (OD at 660 nm): 12.3
[1]; 5.0 μg/mL inhibitor, Day 3
  Cell growth (OD at 660 nm): 18.8
[1]; 5.0 μg/mL inhibitor, Day 5
  Cell growth (OD at 660 nm): 18.0
[1]; 10.0 μg/mL inhibitor, Day 1
  Cell growth (OD at 660 nm): 2.0
[1]; 10.0 μg/mL inhibitor, Day 2
  Cell growth (OD at 660 nm): 5.6
[1]; 10.0 μg/mL inhibitor, Day 3
  Cell growth (OD at 660 nm): 14.7
[1]; 10.0 μg/mL inhibitor, Day 5
  Cell growth (OD at 660 nm): 16.9
[1]; 20.0 μg/mL inhibitor, Day 1
  Cell growth (OD at 660 nm): 1.2
[1]; 20.0 μg/mL inhibitor, Day 2
  Cell growth (OD at 660 nm): 1.7
[1]; 20.0 μg/mL inhibitor, Day 3
  Cell growth (OD at 660 nm): 2.7
[1]; 20.0 μg/mL inhibitor, Day 5
  Cell growth (OD at 660 nm): 7.0
[1]; Phaffia rhodozyma, ATCC96594, 48 h, 5.0 μg/mL inhibitor, Day 2
  inhibition at 5 µg/mL: ~23%
[1]; concentration not higher than 2.0 μg/mL
  cell growth (effect in words): not affected
[2]; 0.5 μg/mL inhibitor, Day 4
  Astaxanthin content (relative values): 75
[2]; 0.5 μg/mL inhibitor, Day 7
  Astaxanthin content (relative values): 114
[2]; 1.0 μg/mL inhibitor, Day 4
  Astaxanthin content (relative values): 77
[2]; 1.0 μg/mL inhibitor, Day 7
  Astaxanthin content (relative values): 118
[2]; 2.0 μg/mL inhibitor, Day 4
  Astaxanthin content (relative values): 75
[2]; 2.0 μg/mL inhibitor, Day 7
  Astaxanthin content (relative values): 125
[2]; [4]
  Astaxanthin content (relative values): 84
[2]; [5]
  Astaxanthin content (relative values): 131
[2]; [6]
  Astaxanthin content (relative values): 67
[2]; [7]
  Astaxanthin content (relative values): 129
[2]; all conditions tested (0.5-5.0 μg/mL, from start or added at Day 2)
  Astaxanthin production (effect in words): enhanced
[3]; 0.5 μg/mL inhibitor, Day 4
  Cell growth (OD at 660 nm): 39.6
[3]; 0.5 μg/mL inhibitor, Day 7
  Cell growth (OD at 660 nm): 39.8
[3]; 1.0 μg/mL inhibitor, Day 4
  Cell growth (OD at 660 nm): 40.3
[3]; 1.0 μg/mL inhibitor, Day 7
  Cell growth (OD at 660 nm): 39.8
[3]; 2.0 μg/mL inhibitor, Day 4
  Cell growth (OD at 660 nm): 38.2
[3]; 2.0 μg/mL inhibitor, Day 7
  Cell growth (OD at 660 nm): 39.3
[3]; [4]
  Cell growth (OD at 660 nm): 37.4
[3]; [5]
  Cell growth (OD at 660 nm): 37.9
[3]; [6]
  Cell growth (OD at 660 nm): 40.2
[3]; [7]
  Cell growth (OD at 660 nm): 39.5
